Legend:
[1] = Effective permeability of compound by PAMPA-BBB assay; assay type: ADME; settings: read-out: Peff
Vero = test: Cytotoxicity against monkey Vero cells assessed as reduction in cell viability at 100 uM incubated for 3 to 5 days by colorimetric analysis; assay type: cell-based; settings: chlorocebus sabaeus
[2] = Cytotoxicity against human MRC5 cells assessed as reduction in cell viability incubated for 3 to 5 days by colorimetric analysis; assay type: cell-based
[3] = Solubility of compound in water incubated for 2 hrs by nephelometry; assay type: physicochemical; settings: buffer
[4] = Stability in human liver microsomes at 5 uM incubated for 60 mins by UPLC-MS/MS analysis; assay type: ADME, Microsome; settings: 1 h
[5] = Stability in mouse liver microsomes at 5 uM incubated for 60 mins by UPLC-MS/MS analysis; assay type: ADME, Microsome; settings: 1 h
Cytochrome P450 2C9 = Cytochrome P450 2C9 (Homo sapiens, UniProt P11712); test: Inhibition of recombinant human CYP2C9 at 10 uM using 7-methoxy-4-(trifluoromethyl)coumarin as substrate incubated for 5 mins followed by substrate addition by fluorescence based assay; assay type: ADME; settings: recombinant enzyme
Cytochrome P450 2C19 = Cytochrome P450 2C19 (Homo sapiens, UniProt P33261); test: Inhibition of recombinant human CYP2C19 at 10 uM using 3-cyano-7-ethoxycoumarin as substrate incubated for 5 mins followed by substrate addition by fluorescence based assay; assay type: ADME; settings: recombinant enzyme
Cytochrome P450 3A4 = Cytochrome P450 3A4 (Homo sapiens, UniProt P08684); test: Inhibition of recombinant human CYP3A4 at 10 uM using 7-benzyloxytrifluoromethyl coumarin (7-BFC) and Dibenzylfluorescein as substrate incubated for 5 mins followed by substrate addition by fluorescence based assay; assay type: ADME; settings: recombinant enzyme
[6] = molecular target: Voltage-gated inwardly rectifying potassium channel KCNH2 (Homo sapiens, UniProt Q12809); test: Inhibition of recombinant human ERG expressed in CHO cells by patch clamp assay; assay type: cell-based
[7] = molecular target: T1, Cholecystokinin receptor type A (Homo sapiens, UniProt P32238); test: Displacement of [125I]CCK-8s from human CCKA incubated for 60 mins by scintillation counting method
T1 sequence (P32238 whole entry): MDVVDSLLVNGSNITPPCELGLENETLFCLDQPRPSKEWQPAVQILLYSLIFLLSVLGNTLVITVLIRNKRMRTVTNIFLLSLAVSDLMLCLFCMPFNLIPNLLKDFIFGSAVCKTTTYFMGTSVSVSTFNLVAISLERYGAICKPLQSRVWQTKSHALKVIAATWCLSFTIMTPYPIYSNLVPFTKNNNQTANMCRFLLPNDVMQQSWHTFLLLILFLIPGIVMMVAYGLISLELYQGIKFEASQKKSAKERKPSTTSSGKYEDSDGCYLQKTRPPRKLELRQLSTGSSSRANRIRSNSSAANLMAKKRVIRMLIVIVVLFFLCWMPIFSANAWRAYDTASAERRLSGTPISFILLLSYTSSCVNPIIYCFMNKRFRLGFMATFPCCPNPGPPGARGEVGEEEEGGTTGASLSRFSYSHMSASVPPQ

Sequence of Cytochrome P450 3A4 (P08684 whole entry): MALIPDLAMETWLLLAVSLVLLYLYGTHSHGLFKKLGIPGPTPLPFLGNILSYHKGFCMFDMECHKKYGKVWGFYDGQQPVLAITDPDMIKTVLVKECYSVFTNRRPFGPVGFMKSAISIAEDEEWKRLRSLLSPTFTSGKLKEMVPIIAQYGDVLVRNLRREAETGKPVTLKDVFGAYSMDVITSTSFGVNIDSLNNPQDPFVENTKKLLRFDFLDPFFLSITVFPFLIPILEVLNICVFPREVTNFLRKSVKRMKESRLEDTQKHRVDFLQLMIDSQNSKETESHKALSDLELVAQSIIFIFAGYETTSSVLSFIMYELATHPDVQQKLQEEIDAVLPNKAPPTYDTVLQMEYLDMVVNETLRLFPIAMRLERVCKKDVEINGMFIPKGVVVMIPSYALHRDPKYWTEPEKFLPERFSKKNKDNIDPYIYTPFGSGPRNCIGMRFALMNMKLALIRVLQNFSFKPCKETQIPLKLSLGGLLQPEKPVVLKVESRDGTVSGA
Sequence of Cytochrome P450 2C19 (P33261 whole entry): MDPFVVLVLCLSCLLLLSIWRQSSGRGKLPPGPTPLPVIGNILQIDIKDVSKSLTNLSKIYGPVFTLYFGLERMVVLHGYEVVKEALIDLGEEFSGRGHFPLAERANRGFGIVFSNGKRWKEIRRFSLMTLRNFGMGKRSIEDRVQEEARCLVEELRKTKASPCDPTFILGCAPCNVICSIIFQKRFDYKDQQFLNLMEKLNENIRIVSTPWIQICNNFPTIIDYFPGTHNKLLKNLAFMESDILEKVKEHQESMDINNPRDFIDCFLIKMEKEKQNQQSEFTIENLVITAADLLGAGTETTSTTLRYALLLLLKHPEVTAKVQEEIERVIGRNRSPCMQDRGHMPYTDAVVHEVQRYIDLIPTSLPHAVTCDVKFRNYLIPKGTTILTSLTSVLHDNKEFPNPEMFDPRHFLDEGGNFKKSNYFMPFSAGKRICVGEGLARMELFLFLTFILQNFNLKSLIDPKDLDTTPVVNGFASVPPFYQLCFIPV
Sequence of Cytochrome P450 2C9 (P11712 whole entry): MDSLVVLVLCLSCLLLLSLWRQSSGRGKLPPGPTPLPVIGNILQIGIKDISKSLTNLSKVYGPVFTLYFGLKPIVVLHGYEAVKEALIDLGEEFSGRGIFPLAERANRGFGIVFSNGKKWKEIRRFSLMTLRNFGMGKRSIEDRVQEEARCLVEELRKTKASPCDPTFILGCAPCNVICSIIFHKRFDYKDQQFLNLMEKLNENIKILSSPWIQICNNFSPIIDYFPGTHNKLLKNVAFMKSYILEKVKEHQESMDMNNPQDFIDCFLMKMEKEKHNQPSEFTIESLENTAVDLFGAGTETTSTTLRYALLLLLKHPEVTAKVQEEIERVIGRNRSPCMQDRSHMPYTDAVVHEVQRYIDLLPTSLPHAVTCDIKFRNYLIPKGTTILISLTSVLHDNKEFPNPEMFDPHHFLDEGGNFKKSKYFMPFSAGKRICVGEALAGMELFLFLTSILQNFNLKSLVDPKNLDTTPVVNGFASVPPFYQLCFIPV
Sequence of Voltage-gated inwardly rectifying potassium channel KCNH2 (Q12809 whole entry): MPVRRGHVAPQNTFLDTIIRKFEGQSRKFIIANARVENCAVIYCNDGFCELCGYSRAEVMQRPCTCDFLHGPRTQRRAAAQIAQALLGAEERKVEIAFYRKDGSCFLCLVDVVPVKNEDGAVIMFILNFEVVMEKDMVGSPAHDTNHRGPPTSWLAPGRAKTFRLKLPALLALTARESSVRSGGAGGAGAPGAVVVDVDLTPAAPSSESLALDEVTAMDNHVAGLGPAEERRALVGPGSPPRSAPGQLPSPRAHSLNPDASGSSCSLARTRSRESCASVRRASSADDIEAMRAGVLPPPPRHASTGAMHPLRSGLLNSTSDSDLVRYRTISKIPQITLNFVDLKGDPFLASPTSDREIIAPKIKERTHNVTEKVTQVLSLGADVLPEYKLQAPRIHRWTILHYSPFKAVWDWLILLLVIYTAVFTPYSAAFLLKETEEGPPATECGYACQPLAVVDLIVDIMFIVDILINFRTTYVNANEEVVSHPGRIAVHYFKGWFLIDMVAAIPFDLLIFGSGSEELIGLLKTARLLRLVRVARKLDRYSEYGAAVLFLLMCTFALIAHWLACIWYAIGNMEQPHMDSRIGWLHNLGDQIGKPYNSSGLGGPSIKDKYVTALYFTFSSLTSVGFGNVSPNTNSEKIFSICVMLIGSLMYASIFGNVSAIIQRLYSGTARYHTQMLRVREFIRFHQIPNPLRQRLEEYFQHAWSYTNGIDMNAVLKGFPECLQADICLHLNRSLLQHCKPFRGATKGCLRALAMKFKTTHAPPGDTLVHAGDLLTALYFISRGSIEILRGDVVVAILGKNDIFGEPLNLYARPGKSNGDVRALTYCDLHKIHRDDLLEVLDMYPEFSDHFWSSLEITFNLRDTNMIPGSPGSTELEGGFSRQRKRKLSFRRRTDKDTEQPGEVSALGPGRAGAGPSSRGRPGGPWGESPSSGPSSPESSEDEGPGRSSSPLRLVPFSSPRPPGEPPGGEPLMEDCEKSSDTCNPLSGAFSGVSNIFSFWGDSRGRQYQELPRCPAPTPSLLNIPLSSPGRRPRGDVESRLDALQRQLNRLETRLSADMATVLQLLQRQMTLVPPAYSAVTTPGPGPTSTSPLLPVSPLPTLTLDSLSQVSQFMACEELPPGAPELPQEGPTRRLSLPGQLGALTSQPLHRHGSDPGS

CCOP(=O)(OCC)C1(c2ccccc2)N=CC2C(=O)N(c3ccc(F)c(Cl)c3)C(=O)C21 (racemic)
Papp [1]: 97 nm/s | Activity (Vero): Non-Toxic | CC50 [2]: > 100 µM | solubility [3]: Soluble | Stability [4]: Stable | Stability [5]: Stable | inhibition (INH) (Cytochrome P450 2C9): Not Active | inhibition (INH) (Cytochrome P450 2C19): Not Active | inhibition (INH) (Cytochrome P450 3A4): Not Active | inhibition (INH) [6]: Not Active | IC50 [7]: 5.94 µM

Source: ChEMBL document CHEMBL4354864, “Bicyclic α-Iminophosphonates as High Affinity Imidazoline I2 Receptor Ligands for Alzheimer's Disease” (J Med Chem, 2020)
